Data from ChEMBL document CHEMBL1201862, “PubChem BioAssay data set” (2004).
Blank lines part the entries; values can stand above or below the compound they belong to. Activity calls are given as the source filed them.

Columns and labels:
[1] = target: Dual specificity tyrosine-phosphorylation-regulated kinase 1B (Homo sapiens, UniProt Q9Y463); test: Navigating the Kinome. Panel member name: DYRK1B; format: functional
[2] = target: Macrophage-stimulating protein receptor (Homo sapiens, UniProt Q04912); test: Navigating the Kinome. Panel member name: MST1R; format: functional
[3] = target: cAMP-dependent protein kinase catalytic subunit alpha (Homo sapiens, UniProt P17612); format: functional
Activin receptor type-1 = Activin receptor type-1 (Homo sapiens, UniProt Q04771); test: Navigating the Kinome. Panel member name: ACVR1; format: functional
[4] = target: Leucine-rich repeat serine/threonine-protein kinase 2 (Homo sapiens, UniProt Q5S007); format: functional;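 also: value from a broad kinome-wide panel profiling study in which LRRK2 was one of the kinases tested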
[5] = target: Serine/threonine-protein kinase DCLK1 (Homo sapiens, UniProt O15075); format: functional;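 also: affinity for DCLK1 (listed as DCAMKL1) measured as one member of a kinome-wide kinase profiling panel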
[6] = target: Protein kinase C gamma type (Homo sapiens, UniProt P05129); format: functional
[7] = target: Phosphorylase b kinase gamma catalytic chain, liver/testis isoform (Homo sapiens, UniProt P15735); format: functional;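 also: PHKG2 measured as one member of a kinome-wide kinase panel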
Sequence of Phosphorylase b kinase gamma catalytic chain, liver/testis isoform (P15735 whole entry, canonical isoform): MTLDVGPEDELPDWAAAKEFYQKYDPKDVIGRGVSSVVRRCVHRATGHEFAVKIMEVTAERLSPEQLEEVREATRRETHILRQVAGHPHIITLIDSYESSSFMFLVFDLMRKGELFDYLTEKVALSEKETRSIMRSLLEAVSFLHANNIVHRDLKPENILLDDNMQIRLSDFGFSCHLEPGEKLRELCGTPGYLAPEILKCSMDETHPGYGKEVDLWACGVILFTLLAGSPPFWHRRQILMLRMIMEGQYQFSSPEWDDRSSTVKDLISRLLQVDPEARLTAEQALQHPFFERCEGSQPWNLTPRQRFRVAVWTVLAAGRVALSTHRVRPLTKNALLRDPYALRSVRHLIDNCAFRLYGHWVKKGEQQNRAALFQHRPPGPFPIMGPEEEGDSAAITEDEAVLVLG

[8] = target: Mast/stem cell growth factor receptor Kit (Homo sapiens, UniProt P10721); format: functional;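 also: KIT entry within a kinase panel assay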
[9] = target: MAP kinase-activated protein kinase 5 (Homo sapiens, UniProt Q8IW41); format: functional;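 also: measured as one member of a kinome panel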
[10] = target: 3-phosphoinositide-dependent protein kinase 1 (Homo sapiens, UniProt O15530); format: functional;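 also: value comes from the Navigating the Kinome panel, PDPK1 member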
[11] = target: Serine/threonine-protein kinase 17A (Homo sapiens, UniProt Q9UEE5); format: functional
Sequence of Serine/threonine-protein kinase 17A (Q9UEE5 whole entry): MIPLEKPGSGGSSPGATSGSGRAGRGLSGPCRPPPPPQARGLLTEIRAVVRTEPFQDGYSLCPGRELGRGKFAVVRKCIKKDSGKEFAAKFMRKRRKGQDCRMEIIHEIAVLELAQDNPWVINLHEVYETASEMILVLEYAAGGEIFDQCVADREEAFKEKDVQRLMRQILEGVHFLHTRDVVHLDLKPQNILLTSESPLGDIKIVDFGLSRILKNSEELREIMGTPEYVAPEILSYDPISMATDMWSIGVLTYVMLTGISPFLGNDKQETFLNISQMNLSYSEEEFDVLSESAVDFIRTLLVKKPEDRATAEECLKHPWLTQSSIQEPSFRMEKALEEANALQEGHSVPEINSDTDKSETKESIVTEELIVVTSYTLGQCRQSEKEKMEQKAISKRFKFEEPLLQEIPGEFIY

[12] = target: Serine/threonine-protein kinase 3 (Homo sapiens, UniProt Q13188); format: functional;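 also: measured as one member of a kinome-wide kinase panel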
Sequence of Serine/threonine-protein kinase 3 (Q13188 whole entry): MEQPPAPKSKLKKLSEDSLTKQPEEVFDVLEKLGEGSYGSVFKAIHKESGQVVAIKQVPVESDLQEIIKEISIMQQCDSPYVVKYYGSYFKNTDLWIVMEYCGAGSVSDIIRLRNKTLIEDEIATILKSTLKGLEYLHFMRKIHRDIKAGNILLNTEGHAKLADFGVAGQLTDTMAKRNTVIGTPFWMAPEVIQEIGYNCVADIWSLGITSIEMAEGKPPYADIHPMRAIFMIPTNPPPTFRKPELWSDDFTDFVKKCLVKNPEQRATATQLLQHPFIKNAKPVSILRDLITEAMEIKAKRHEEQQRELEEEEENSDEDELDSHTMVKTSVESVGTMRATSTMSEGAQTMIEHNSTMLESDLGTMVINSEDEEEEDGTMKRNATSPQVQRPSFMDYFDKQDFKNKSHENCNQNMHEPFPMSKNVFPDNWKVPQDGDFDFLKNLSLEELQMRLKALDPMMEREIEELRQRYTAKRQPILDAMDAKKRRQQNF

[13] = target: Non-receptor tyrosine-protein kinase TYK2 (Homo sapiens, UniProt P29597); format: functional
Sequence of Non-receptor tyrosine-protein kinase TYK2 (P29597 whole entry): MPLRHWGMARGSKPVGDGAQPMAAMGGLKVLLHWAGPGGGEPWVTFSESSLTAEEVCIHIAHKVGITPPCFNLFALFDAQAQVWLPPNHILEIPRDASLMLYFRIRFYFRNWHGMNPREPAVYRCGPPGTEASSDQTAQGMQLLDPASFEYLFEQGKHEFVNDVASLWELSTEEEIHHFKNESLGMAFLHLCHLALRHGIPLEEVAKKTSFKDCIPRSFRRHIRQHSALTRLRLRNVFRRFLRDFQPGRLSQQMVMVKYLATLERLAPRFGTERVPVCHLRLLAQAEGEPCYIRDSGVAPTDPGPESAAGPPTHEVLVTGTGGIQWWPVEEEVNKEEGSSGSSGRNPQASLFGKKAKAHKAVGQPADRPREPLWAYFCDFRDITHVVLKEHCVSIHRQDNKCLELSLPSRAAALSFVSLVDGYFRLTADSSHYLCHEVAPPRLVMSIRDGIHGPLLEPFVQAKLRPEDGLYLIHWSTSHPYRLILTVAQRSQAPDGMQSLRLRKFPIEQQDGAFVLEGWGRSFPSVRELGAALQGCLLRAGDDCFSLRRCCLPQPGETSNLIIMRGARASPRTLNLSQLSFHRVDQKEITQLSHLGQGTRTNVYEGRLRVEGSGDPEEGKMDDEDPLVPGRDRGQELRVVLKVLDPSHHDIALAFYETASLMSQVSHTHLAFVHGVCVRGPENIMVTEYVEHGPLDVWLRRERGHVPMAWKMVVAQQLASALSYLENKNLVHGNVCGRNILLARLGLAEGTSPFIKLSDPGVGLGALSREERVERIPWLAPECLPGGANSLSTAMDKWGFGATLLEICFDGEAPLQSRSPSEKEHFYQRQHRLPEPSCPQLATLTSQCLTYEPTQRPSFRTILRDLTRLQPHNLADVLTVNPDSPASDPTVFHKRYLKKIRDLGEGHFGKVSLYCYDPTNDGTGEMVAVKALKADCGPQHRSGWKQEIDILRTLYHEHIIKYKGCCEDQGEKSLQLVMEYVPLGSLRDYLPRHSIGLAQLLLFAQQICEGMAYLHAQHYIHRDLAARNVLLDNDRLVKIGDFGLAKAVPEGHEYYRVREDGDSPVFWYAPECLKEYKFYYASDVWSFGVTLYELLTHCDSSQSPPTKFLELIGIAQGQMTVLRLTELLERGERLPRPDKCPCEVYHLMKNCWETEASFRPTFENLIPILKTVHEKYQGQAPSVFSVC

[14] = target: Tyrosine-protein kinase receptor UFO (Homo sapiens, UniProt P30530); format: functional
[15] = target: cGMP-dependent protein kinase 1 (Homo sapiens, UniProt Q13976); format: functional;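 also: value from a kinome panel screen with PRKG1 as the panel member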
[16] = target: Serine/threonine-protein kinase D2 (Homo sapiens, UniProt Q9BZL6); format: functional;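 also: measured against PRKD2 as one member of a kinome-wide kinase profiling panel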
Sequence of Serine/threonine-protein kinase D2 (Q9BZL6 whole entry): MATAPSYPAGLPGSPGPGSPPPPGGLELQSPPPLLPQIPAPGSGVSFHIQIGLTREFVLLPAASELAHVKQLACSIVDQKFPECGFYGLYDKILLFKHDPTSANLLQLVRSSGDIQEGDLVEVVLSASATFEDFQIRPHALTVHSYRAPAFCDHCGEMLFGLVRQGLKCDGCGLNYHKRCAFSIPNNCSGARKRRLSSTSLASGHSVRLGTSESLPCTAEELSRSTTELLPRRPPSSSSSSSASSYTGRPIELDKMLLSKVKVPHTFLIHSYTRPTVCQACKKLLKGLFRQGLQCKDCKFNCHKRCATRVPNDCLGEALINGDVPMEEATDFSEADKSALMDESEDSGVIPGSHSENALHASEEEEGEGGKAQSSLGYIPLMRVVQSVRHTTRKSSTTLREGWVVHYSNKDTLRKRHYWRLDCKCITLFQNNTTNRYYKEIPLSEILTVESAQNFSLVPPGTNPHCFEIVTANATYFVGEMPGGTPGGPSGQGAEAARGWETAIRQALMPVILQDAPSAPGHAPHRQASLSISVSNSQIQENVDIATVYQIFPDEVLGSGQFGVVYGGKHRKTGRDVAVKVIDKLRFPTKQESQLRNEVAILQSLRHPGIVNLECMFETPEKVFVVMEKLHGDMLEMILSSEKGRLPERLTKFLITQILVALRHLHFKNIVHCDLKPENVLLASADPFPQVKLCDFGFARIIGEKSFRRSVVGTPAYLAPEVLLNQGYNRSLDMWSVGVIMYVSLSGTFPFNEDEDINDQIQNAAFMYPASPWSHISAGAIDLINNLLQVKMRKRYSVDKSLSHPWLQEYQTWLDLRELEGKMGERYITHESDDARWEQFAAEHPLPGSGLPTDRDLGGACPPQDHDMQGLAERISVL

[17] = target: Serine/threonine-protein kinase Nek4 (Homo sapiens, UniProt P51957); format: functional
Sequence of Serine/threonine-protein kinase Nek4 (P51957 whole entry): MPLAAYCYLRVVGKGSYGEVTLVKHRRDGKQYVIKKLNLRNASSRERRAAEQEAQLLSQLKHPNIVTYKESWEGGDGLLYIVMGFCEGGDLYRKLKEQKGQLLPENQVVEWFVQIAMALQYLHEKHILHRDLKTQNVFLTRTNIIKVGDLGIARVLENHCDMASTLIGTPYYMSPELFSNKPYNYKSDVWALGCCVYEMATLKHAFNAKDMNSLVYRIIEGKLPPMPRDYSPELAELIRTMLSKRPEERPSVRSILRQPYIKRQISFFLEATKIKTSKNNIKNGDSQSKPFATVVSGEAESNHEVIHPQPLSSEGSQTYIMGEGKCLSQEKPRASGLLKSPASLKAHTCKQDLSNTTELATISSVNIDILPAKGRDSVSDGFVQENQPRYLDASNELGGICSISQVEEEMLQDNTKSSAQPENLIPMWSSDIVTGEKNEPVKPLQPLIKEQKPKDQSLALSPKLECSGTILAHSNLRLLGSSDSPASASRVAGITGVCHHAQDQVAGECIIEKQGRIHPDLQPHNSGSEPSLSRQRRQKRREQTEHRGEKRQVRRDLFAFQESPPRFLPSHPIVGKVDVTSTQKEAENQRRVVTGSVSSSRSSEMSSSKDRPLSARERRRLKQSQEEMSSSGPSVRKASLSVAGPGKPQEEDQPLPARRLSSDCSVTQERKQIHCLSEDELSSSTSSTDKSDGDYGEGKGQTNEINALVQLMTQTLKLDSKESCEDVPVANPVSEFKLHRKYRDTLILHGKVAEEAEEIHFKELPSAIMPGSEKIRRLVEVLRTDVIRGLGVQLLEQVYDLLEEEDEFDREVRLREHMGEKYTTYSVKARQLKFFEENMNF

[18] = target: Tyrosine-protein kinase Fer (Homo sapiens, UniProt P16591); format: functional;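 also: FER tested as one member of a kinome panel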
Sequence of Tyrosine-protein kinase Fer (P16591 whole entry): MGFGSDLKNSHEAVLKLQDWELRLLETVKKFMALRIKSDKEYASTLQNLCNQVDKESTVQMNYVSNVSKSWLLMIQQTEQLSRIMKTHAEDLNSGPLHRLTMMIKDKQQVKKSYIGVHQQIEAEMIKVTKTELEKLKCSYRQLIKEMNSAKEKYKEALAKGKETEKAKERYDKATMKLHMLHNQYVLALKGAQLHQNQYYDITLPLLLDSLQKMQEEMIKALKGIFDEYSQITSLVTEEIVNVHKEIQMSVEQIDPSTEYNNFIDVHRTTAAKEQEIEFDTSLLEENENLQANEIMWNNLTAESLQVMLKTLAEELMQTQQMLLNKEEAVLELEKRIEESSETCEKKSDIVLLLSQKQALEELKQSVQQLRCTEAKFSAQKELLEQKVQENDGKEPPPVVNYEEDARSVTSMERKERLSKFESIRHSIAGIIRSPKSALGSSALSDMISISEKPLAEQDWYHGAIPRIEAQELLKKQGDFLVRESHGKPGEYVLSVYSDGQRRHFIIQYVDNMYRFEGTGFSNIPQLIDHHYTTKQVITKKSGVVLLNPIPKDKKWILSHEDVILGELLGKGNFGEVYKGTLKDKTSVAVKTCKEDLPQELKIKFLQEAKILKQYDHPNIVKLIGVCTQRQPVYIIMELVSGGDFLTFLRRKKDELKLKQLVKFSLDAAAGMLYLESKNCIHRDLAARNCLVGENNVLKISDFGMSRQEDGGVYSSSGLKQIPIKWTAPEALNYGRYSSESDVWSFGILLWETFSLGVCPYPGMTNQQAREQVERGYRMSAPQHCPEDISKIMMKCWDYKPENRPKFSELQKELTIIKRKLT

Insulin receptor = Insulin receptor (Homo sapiens, UniProt P06213); format: functional;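 also: insulin receptor kinase tested as one member of a kinome-wide kinase panel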
[19] = target: T1, Sentrin-specific protease 7 (Homo sapiens, UniProt Q9BQF6); format: functional;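 also: Luminescence-based dose-response confirmation of ultra-high-throughput screening hits, measuring inhibition of SENP7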
T1 sequence (Q9BQF6 whole entry): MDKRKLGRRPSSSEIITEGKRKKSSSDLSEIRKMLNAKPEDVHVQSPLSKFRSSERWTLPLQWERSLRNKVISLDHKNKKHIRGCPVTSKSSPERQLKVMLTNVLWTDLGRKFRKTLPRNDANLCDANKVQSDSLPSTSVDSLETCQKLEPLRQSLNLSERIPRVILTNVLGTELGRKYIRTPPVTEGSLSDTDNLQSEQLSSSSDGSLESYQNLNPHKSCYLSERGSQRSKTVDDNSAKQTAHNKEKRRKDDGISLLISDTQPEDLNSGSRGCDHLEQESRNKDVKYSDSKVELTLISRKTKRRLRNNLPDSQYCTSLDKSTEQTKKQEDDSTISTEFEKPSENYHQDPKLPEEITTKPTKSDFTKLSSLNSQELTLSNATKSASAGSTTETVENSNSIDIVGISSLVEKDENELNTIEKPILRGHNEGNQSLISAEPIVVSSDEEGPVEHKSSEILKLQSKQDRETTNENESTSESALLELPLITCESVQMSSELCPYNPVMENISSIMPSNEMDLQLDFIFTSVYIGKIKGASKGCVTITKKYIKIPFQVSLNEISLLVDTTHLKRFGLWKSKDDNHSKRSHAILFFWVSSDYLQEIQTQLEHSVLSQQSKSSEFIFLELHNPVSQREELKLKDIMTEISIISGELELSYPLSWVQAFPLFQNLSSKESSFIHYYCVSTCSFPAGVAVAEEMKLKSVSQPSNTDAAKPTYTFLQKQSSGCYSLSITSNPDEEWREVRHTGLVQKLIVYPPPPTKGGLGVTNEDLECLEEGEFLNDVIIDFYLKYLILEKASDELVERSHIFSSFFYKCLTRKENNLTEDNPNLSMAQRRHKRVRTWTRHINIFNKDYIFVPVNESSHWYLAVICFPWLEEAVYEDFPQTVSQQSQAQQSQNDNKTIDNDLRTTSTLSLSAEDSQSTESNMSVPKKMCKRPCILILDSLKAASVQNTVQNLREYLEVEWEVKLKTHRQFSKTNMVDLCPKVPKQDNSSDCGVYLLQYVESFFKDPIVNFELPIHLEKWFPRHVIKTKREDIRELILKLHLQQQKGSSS

[20] = target: T2, Sentrin-specific protease 8 (Homo sapiens, UniProt Q96LD8); format: functional;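 also: luminescence read-out of SENP8 inhibition, dose-response confirmation following an ultra-high-throughput screen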
T2 sequence (Q96LD8 whole entry): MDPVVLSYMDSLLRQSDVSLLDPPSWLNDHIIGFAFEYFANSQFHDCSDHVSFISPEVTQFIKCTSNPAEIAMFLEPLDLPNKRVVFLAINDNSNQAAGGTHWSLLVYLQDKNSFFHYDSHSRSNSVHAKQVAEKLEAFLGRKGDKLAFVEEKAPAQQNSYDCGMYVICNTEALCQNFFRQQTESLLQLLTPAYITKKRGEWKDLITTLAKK

[21] = target: T3, Mannose-6-phosphate isomerase (Homo sapiens, UniProt P34949); test: MPI inhibition at elevated mannose 6-phosphate – biochemical, fluorescence intensity, high mannose 6-phosphate, primary screen (AID 1220)
T3 sequence (P34949 whole entry): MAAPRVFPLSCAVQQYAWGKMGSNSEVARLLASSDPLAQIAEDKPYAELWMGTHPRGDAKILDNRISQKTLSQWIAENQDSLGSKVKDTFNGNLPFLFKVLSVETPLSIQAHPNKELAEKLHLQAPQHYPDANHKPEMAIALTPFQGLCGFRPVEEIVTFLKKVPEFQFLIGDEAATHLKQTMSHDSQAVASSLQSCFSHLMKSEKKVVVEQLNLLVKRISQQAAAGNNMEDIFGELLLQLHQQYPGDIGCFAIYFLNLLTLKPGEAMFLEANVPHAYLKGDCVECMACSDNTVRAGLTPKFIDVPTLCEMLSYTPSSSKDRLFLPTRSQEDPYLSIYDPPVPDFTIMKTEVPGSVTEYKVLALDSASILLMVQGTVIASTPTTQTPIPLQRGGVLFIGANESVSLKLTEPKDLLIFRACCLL

Ki [1]: > 2510 nM (inactive) | Ki [2]: > 3980 nM (inactive) | Ki [3]: > 1260 nM (inactive) | Ki (Activin receptor type-1): > 3980 nM (inactive) | Ki [4]: > 2510 nM (inactive)
Structure (SMILES): [2H]C([2H])([2H])Oc1cccc(C(C)NC(=O)c2sc(-c3ccncc3)nc2C)c1 (stereo not drawn)

Ki [5]: 2000 nM (active) | Ki [6]: 15.8 nM (active) | Ki [7]: 1000 nM (active) | Ki [8]: > 1260 nM (inactive) | Ki [9]: > 1580 nM (inactive) | Ki [10]: 2000 nM (active) | Ki [11]: 398 nM (active) | Ki [12]: 63.1 nM (active) | Ki [13]: > 2000 nM (inactive) | Ki [14]: 200 nM (active) | Ki [15]: 7.94 nM (active) | Ki [16]: 31.6 nM (active) | Ki [17]: 126 nM (active) | Ki [18]: 1260 nM (active) | Ki (Insulin receptor): 2510 nM (active)
Structure (SMILES): Cc1n[nH]c2ccc(-c3cncc(OCC(N)Cc4ccc(Cl)c(Cl)c4)c3)cc12 (stereo not drawn)

IC50 [19]: 5780 nM (active) | IC50 [21]: > 50000 nM (not active)
Structure (SMILES): COc1ccc(-n2c(NC(=O)c3ccco3)c(C#N)c3nc4ccccc4nc32)cc1
IC50 [20]: 7570 nM (active)
